# pIC50: −log10 of the molar value.
# Tests used:
# [1] = test system: Plasmodium falciparum 3D7; test: P. falciparum 3D7 asexual blood stage assay, Assay Procedure Version 1 (SYBR green readout); type: cell-based; details: 3D7, Erythrocyte, Version 1 of the assay procedure (no asterisk), 72 h incubation in infected erythrocytes, 10,000 nM to 0.51 nM
# Experimental: Asexual Blood Stage Assay
# The assay used to measure the effect of test compounds on a bloodstream stage of Plasmodium falciparum 3D7 strain employs SYBR green as the readout. This is a dye that binds to double stranded deoxyribonucleic acid (DNA) with a resulting increase in fluorescence, allowing detection of P. falciparum DNA in infected erythrocytes, and thereby providing a measure of parasite growth and propagation.
# P. falciparum Culture Maintenance
# Erythrocytes (A+blood) were prepared for both parasite culture and assay by washing 4 times with incomplete media (15.9 g RPMI 1640 (25 mM HEPES, L-glutamine), 1 g NaHCO3, 2 g glucose, 400 μL gentacin (500 mg/mL), 2 mL hypoxanthine solution (13.6 g/L in 0.1M NaOH pH 7.3) in 1 litre of media). The cells were centrifuged at 1800 g for 5 minutes, before decanting the supernatant and re-suspending in fresh incomplete media. On the final wash, the cells were re-suspended in complete media (incomplete media with 5 g/L AlbumaxII), and centrifuged at 1800 g for 3 minutes. This cell sediment was treated as 100% haematocrit.
# P. falciparum 3D7 was cultured in erythrocytes at 5% haematocrit in complete media at 37° C. (1% O2, 3% CO2, balance N2). Cultures were split on a weekly basis to achieve a 1% parasitaemia in erythrocites at 5% haematocrit in fresh media. Culture media is replaced by fresh media every other day (2 times during the week).
# Assay Procedure—Version 1
# On day 1, test compounds were added to assay plates using Echo dispensing technology (3 fold dilution and 10 points titration). 50 nL of each compound dilution was added to 50 μL of culture (5% haematocrit, 0.5% parasitaemia) and incubated for 72 h at 37° C. (1% O2, 3% CO2, balance N2). Final concentrations of test compounds ranged from 10,000 nM to 0.51 nM, in […].
# On day 4, 10 μL SYBR green (Invitrogen S7563 supplied as 10,000×concentrate in DMSO) pre-diluted to 3× concentrate with Lysis buffer (20 mM Tris pH 7.9, 5% EDTA, 0.16% w/v, 1.6% TX100 v/v) was added to the cultures and incubated in the dark, overnight, at room temperature.
# On day 5, fluorescent signal was measured using a BioTek plate reader (excitation 485 nm, emission 528 nm). All data were processed using IDBS ActivityBase. Raw data were converted into percent inhibition through linear regression by setting the high inhibition control as 100% and the no inhibition control as 0%. Quality control criteria for passing plates were as follows: Z′>0.5, S:B>3, % CV(no inhibition control)<15. The formula used to calculate Z′ is
# All EC50 curve fitting was undertaken using the following 4 parametric equation:
# [formula] where A=% inhibition at bottom; B=% inhibition at top; C=EC50; D=slope; x=inhibitor concentration; and y=% inhibition. […] Assay Procedure—Version 2
# [2] = test system: Plasmodium falciparum 3D7; test: P. falciparum 3D7 asexual blood stage assay, Assay Procedure Version 2 (SYBR green readout); type: cell-based; details: Plasmodium falciparum, 3D7, Erythrocyte, 72 h, Version 2 of the assay procedure (asterisk *); 72 h incubation in infected erythrocytes; 50,000 nM to 15 nM
# In short: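 Parasite growth read as DNA fluorescence (SYBR green lysis overnight, ex 485/em 528 nm) after 72 h drug exposure of 3D7-infected erythrocytes at 0.5% parasitaemia, 5% haematocrit, 37 °C under 1% O2/3% CO2. Compounds tested 15–50,000 nM final, 0.5% DMSO; normalised to mefloquine (100%) and DMSO (0%), biphasic two-site EC50 fitting.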
pIC50 [1],pIC50 [2],Structure (SMILES)
5.46,,"C[C@@]1(c2cccc(Nc3ccc(F)cc3)c2Cl)CC(=O)N([C@H]2C[C@@H]3CC[C@H]2O3)C(=N)N1 (racemic) [Example 188, (6S)-6-[2-Chloro-3-(4-fluoro-anilino)phenyl]-2-imino-6-methyl-3-[(1RS,2SR,4SR)-7-oxabicyclo[2.2.1]heptan-3-yl]-hexahydropyrimidin-4-one]"
6.92,,"C[C@@]1(c2cccc(Nc3ccccc3)c2Cl)CC(=O)N([C@H]2CCOC2)C(=N)N1 (relative stereo) [Example 5, (6S)-6-(3-Anilino-2-chloro-phenyl)-2-imino-6-methyl-3-[(3S or 3R*)-tetrahydrofuran-3-yl]hexahydropyrimidin-4-one]"
7.15,,"C[C@@]1(c2cccc(Nc3ccccc3)c2Cl)CC(=O)N([C@@H]2CCOC2)C(=N)N1 (relative stereo) [Example 6, (6S)-6-(3-Anilino-2-chloro-phenyl)-2-imino-6-methyl-3-[(3S or 3R*)-tetrahydrofuran-3-yl]hexahydropyrimidin-4-one]"
6.49,,"C[C@@]1(c2cccc(Nc3ccc(F)cc3)c2Cl)CC(=O)N([C@@H]2CCOC2)C(=N)N1 (relative stereo) [Example 169, (6S)-6-[2-Chloro-3-(4-fluoro-anilino)phenyl]-2-imino-6-methyl-3-[(3R*)-tetrahydro-furan-3-yl]hexahydropyrimidin-4-one]"
5.59,,"C[C@@]1(c2cccc(Nc3ccc(F)cc3)c2Cl)CC(=O)N([C@@H]2CCCOC2)C(=N)N1 (relative stereo) [Example 190, (6S)-6-[2-Chloro-3-(4-fluoro-anilino)phenyl]-2-imino-6-methyl-3-[(3R* or 3S)-tetrahydropyran-3-yl]-hexahydropyrimidin-4-one]"
7.51,,"C[C@@H]1C[C@H](N2C(=N)N[C@](C)(c3cccc(Nc4cnc(C5CC5)nc4)c3Cl)CC2=O)CCO1 (relative stereo) [Example 204, (6S)-6-{2-Chloro-3-[(2-cyclo-propylpyrimidin-5-yl)amino]-phenyl}-2-imino-6-methyl-3-[(2R*,4R*)-2-methyltetrahydro-pyran-4-yl]hexahydropyrimidin-4-one]"
6.31,,"C[C@@]1(c2cccc(Nc3ccc(F)cc3)c2Cl)CC(=O)N(CC2CCOCC2)C(=N)N1 (single isomer, unassigned) [Example 170, (6S*)-6-[2-Chloro-3-(4-fluoro-anilino)phenyl]-2-imino-6-methyl-3-(tetrahydropyran-4-ylmethyl)hexahydropyrimidin-4-one]"
6.09,,"C[C@@]1(c2cccc(Nc3ccc(F)cc3)c2Cl)CC(=O)N(C2CCCOC2)C(=N)N1 (single isomer, unassigned) [Example 189, (6S)-6-[2-Chloro-3-(4-fluoro-anilino)phenyl]-2-imino-6-methyl-3-[(3S*)-tetrahydro-pyran-3-yl]hexahydropyrimidin-4-one]"
6.40,,"C[C@@]1(c2cccc(Nc3ccccc3)c2Cl)CC(=O)N(CC2(O)CC2)C(=N)N1 [Example 1, (6S)-6-(3-Anilino-2-chloro-phenyl)-3-[(1-hydroxy-cyclopropyl)methyl]-2-imino-6-methylhexahydropyrimidin-4-one]"
6.82,,"C[C@@]1(c2cccc(Nc3ccccc3)c2Cl)CC(=O)N(C2CCOCC2)C(=N)N1 [Example 2, (6S)-6-(3-Anilino-2-chloro-phenyl)-2-imino-6-methyl-3-(tetrahydropyran-4-yl)-hexahydropyrimidin-4-one]"
7.10,,"C[C@@]1(c2cccc(Nc3ccccc3)c2Cl)CC(=O)N(CC2CCOCC2)C(=N)N1 [Example 3, (6S)-6-(3-Anilino-2-chloro-phenyl)-2-imino-6-methyl-3-(tetrahydropyran-4-ylmethyl)-hexahydropyrimidin-4-one]"
,6.27,"C[C@@]1(c2cccc(Nc3ccc(C4CC4)nn3)c2Cl)CC(=O)N(C2CCOCC2)C(=N)N1 [Example 197, (6S)-6-{2-Chloro-3-[(6-cyclo-propylpyridazin-3-yl)amino]-phenyl}-2-imino-6-methyl-3-(tetrahydropyran-4-yl)-hexahydropyrimidin-4-one]"
